Experimental data published in ChEMBL document CHEMBL1201862, “PubChem BioAssay data set” (2004).
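Values below derive from 48-hour exposures of cells grown in 96-well plates, with endpoints linearly interpolated between the two concentrations bracketing the appropriate inhibition level. GI50 marks 50% less growth.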 The source made the active and inactive calls. Rule as the data show it: active = GI50 up to about 1.1 µM and inactive = higher. Where a SMILES comes first, the peptide text is derived from it. The star is where a group is joined. Boc = CC(C)(C)OC(=O)*; Bn = c1ccc(C*)cc1

Legend:
Assay in all cases: inhibition of tumour cell growth, NCI panel, 48 h
U-251 = system: U-251
M14 = system: M14
MCF7 = system: MCF7
HOP-62 = system: HOP-62
UO-31 = system: UO-31
OVCAR-3 = system: OVCAR-3
KM12 = system: KM12
MDA-N = system: MDA-N
IGROV-1 = system: IGROV-1
TK-10 = system: TK-10
PC-3 = system: PC-3
OVCAR-4 = system: OVCAR-4
SK-MEL-28 = system: SK-MEL-28
K562 = system: K562
NCI/ADR-RES = system: NCI/ADR-RES
CCRF-CEM = system: CCRF-CEM
SF-295 = system: SF-295
HOP-92 = system: HOP-92
CAKI-1 = system: CAKI-1

| SMILES | GI50 (U-251) | GI50 (M14) | GI50 (MCF7) | GI50 (HOP-62) | GI50 (UO-31) | GI50 (OVCAR-3) | GI50 (KM12) | GI50 (MDA-N) | GI50 (IGROV-1) | GI50 (TK-10) | GI50 (PC-3) | GI50 (OVCAR-4) | GI50 (SK-MEL-28) | GI50 (K562) | GI50 (NCI/ADR-RES) | GI50 (CCRF-CEM) | GI50 (SF-295) | GI50 (HOP-92) | GI50 (CAKI-1) |
| --- | --- | --- | --- | --- | --- | --- | --- | --- | --- | --- | --- | --- | --- | --- | --- | --- | --- | --- | --- |
| COc1cc2oc(=O)cc(C)c2c(OC)c1OC | > 100 µM (inactive) | > 100 µM (inactive) | > 100 µM (inactive) | > 100 µM (inactive) | 38.7 µM (inactive) | > 100 µM (inactive) | > 100 µM (inactive) | > 100 µM (inactive) | > 100 µM (inactive) | > 100 µM (inactive) | > 100 µM (inactive) | > 100 µM (inactive) | > 100 µM (inactive) | > 100 µM (inactive) | > 100 µM (inactive) | > 100 µM (inactive) | > 100 µM (inactive) |  |  |
| CCOC(=O)OC1C(Br)C2CCC1(C)C2(C)C (centres undefined) | 13 µM (inactive) | 12.6 µM (inactive) | 15 µM (inactive) | 16.6 µM (inactive) | 12 µM (inactive) | 14.7 µM (inactive) | 14 µM (inactive) | 15 µM (inactive) | 18.7 µM (inactive) | 14.2 µM (inactive) | 11.3 µM (inactive) | 11.7 µM (inactive) | 15.7 µM (inactive) | 5.79 µM (inactive) | 15.5 µM (inactive) | 4.88 µM (inactive) | 15.3 µM (inactive) | 13.2 µM (inactive) |  |
| N#C/C(C(=O)Nc1ccc(Cl)cc1)=C(/N)N1CCCC1 | > 100 µM (inactive) | > 100 µM (inactive) | > 100 µM (inactive) | > 100 µM (inactive) | > 100 µM (inactive) | > 100 µM (inactive) | > 100 µM (inactive) | > 100 µM (inactive) | > 100 µM (inactive) |  | > 100 µM (inactive) |  | > 100 µM (inactive) | > 100 µM (inactive) | > 100 µM (inactive) | > 100 µM (inactive) | > 100 µM (inactive) | > 100 µM (inactive) | > 100 µM (inactive) |
| COc1cccc(-c2nc(-c3cnccn3)n(COCCO)n2)c1 | > 100 µM (inactive) | > 100 µM (inactive) | > 100 µM (inactive) | > 100 µM (inactive) | > 100 µM (inactive) | > 100 µM (inactive) | > 100 µM (inactive) | > 100 µM (inactive) | > 100 µM (inactive) | > 100 µM (inactive) | > 100 µM (inactive) | > 100 µM (inactive) | > 100 µM (inactive) | > 100 µM (inactive) | > 100 µM (inactive) | > 100 µM (inactive) | > 100 µM (inactive) | > 100 µM (inactive) |  |
| Cc1cc(=O)[nH]c2c1C(=O)c1c(C)cc(=O)n(C)c1C2=O | 0.11 µM (active) | 0.0147 µM (active) | 0.0168 µM (active) | 0.0514 µM (active) | 0.167 µM (active) | 0.0508 µM (active) | 0.0678 µM (active) | 0.0184 µM (active) | 0.202 µM (active) | 0.192 µM (active) | 0.157 µM (active) | 0.195 µM (active) | 0.0191 µM (active) | 0.122 µM (active) | 0.0889 µM (active) | 0.321 µM (active) | 0.167 µM (active) |  | 0.0678 µM (active) |
| CC(C)Oc1c(O)c2c3c(oc(=O)n3C=CC2c2ccccc2)c1OC(C)C (centres undefined) | 20.8 µM (inactive) | 20 µM (inactive) | 19.6 µM (inactive) | 26.7 µM (inactive) | 14.2 µM (inactive) | 21.5 µM (inactive) | 21.5 µM (inactive) | 36.3 µM (inactive) | 21.9 µM (inactive) | 22.1 µM (inactive) | 17 µM (inactive) | 24.6 µM (inactive) | 22.5 µM (inactive) |  | 27.5 µM (inactive) |  | 20.8 µM (inactive) | 30.2 µM (inactive) | 29.2 µM (inactive) |
| O=C(CSc1nc2ccc(I)cc2c(=O)n1Cc1ccccc1)NNC(=S)Nc1ccccc1 | 6.24 µM (inactive) | 62.2 µM (inactive) | 22.5 µM (inactive) |  |  | 12.9 µM (inactive) | 34.4 µM (inactive) | 30.3 µM (inactive) | 2.91 µM (inactive) | 61.8 µM (inactive) | 9.68 µM (inactive) | 6.53 µM (inactive) | > 100 µM (inactive) | 11.3 µM (inactive) | 77.6 µM (inactive) | 6.14 µM (inactive) | 54 µM (inactive) | 11.8 µM (inactive) | 3.33 µM (inactive) |
| CC1=C(C(=O)N(C(C)C)C(C)C)CC(C(=O)N(C(C)C)C(C)C)=C(C)N1 | > 100 µM (inactive) | > 100 µM (inactive) | > 100 µM (inactive) | > 100 µM (inactive) | > 100 µM (inactive) | > 100 µM (inactive) | > 100 µM (inactive) | > 100 µM (inactive) | > 100 µM (inactive) | > 100 µM (inactive) | 96.6 µM (inactive) | > 100 µM (inactive) |  | > 100 µM (inactive) | > 100 µM (inactive) | > 100 µM (inactive) | > 100 µM (inactive) | > 100 µM (inactive) | > 100 µM (inactive) |
| CC(C)CC(=O)CC(C)[C@]1(CCCOCc2ccccc2)C(=O)N2CCC3(C[C@@]24CCC[C@H]41)OCCO3 (some centres undefined) | > 10 µM (inactive) | > 10 µM (inactive) | > 10 µM (inactive) | > 10 µM (inactive) | > 10 µM (inactive) | > 10 µM (inactive) | > 10 µM (inactive) | > 10 µM (inactive) | > 10 µM (inactive) | > 10 µM (inactive) | > 10 µM (inactive) | > 10 µM (inactive) |  | > 10 µM (inactive) | > 10 µM (inactive) | > 10 µM (inactive) | > 10 µM (inactive) | > 10 µM (inactive) | > 10 µM (inactive) |
| CCn1cc(C(=O)O)c(=O)c2cc(F)c(N3CCN(CN4C(=O)/C(=N\NC(=O)c5ccncc5)c5cc(Cl)ccc54)CC3)cc21 | 33 µM (inactive) | 54 µM (inactive) | 28.2 µM (inactive) | 22.9 µM (inactive) | 4.83 µM (inactive) | 39.1 µM (inactive) | 40.3 µM (inactive) | 50.6 µM (inactive) | 18.3 µM (inactive) | 24.7 µM (inactive) | 38.5 µM (inactive) | 36.9 µM (inactive) | 59.2 µM (inactive) | 18.7 µM (inactive) | 79.6 µM (inactive) |  | > 100 µM (inactive) | 45.5 µM (inactive) | 23.7 µM (inactive) |
| O=C(Nc1ccc(S(=O)(=O)/N=c2\ncccn2C(=O)C(C(F)(F)F)C(F)(F)F)cc1)C(C(F)(F)F)C(F)(F)F | > 100 µM (inactive) | > 100 µM (inactive) | > 100 µM (inactive) | > 100 µM (inactive) |  | > 100 µM (inactive) | > 100 µM (inactive) | > 100 µM (inactive) | > 100 µM (inactive) | > 100 µM (inactive) | > 100 µM (inactive) | > 100 µM (inactive) | > 100 µM (inactive) | > 100 µM (inactive) | > 100 µM (inactive) | > 100 µM (inactive) | > 100 µM (inactive) |  | 0.0368 µM (active) |
| O=C1C(NCCc2ccc(O)c([N+](=O)[O-])c2)=CC(=O)c2[nH]cnc21 | 32.3 µM (inactive) | 15 µM (inactive) | 32 µM (inactive) | 68.4 µM (inactive) | 76.9 µM (inactive) | 15.2 µM (inactive) | 42.9 µM (inactive) | 16.3 µM (inactive) | 29.9 µM (inactive) | 36.1 µM (inactive) | 67 µM (inactive) |  | 14.3 µM (inactive) | 18.4 µM (inactive) | > 100 µM (inactive) |  | 10.5 µM (inactive) |  |  |
| Cc1ccc(C(=O)Nc2ccc(S(=O)(=O)O)c3cc(S(=O)(=O)O)cc(S(=O)(=O)O)c23)cc1NC(=O)Nc1cc(C(=O)Nc2ccc(S(=O)(=O)O)c3cc(S(=O)(=O)O)cc(S(=O)(=O)O)c23)ccc1C | > 87.5 µM (inactive) | > 87.5 µM (inactive) | > 87.5 µM (inactive) | > 87.5 µM (inactive) | > 87.5 µM (inactive) | > 87.5 µM (inactive) |  | > 87.5 µM (inactive) | > 87.5 µM (inactive) | > 87.5 µM (inactive) | > 87.5 µM (inactive) | > 87.5 µM (inactive) | > 87.5 µM (inactive) | > 87.5 µM (inactive) |  | > 87.5 µM (inactive) |  |  | > 87.5 µM (inactive) |
| COc1cc(C[C@@H](C)N)cc(OC)c1 | > 100 µM (inactive) | > 100 µM (inactive) | > 100 µM (inactive) | > 100 µM (inactive) | > 100 µM (inactive) | > 100 µM (inactive) | > 100 µM (inactive) | > 100 µM (inactive) | > 100 µM (inactive) | > 100 µM (inactive) | > 100 µM (inactive) | > 100 µM (inactive) | > 100 µM (inactive) | > 100 µM (inactive) | > 100 µM (inactive) | > 100 µM (inactive) | > 100 µM (inactive) |  | > 100 µM (inactive) |
| COC(=O)C(CC(C)C)NC(=O)C(C)NC(=O)C(Cc1ccc(OCc2ccccc2)cc1)NC(=O)C(COCc1ccccc1)NC(=O)OC(C)(C)C (centres undefined) (Boc-S(Bn)Y(Bn)AL-OMe; configuration not given here) | > 100 µM (inactive) | > 100 µM (inactive) | > 100 µM (inactive) | > 100 µM (inactive) | > 100 µM (inactive) | > 100 µM (inactive) | > 100 µM (inactive) | > 100 µM (inactive) | > 100 µM (inactive) | > 100 µM (inactive) | > 100 µM (inactive) | 4.3 µM (inactive) | > 100 µM (inactive) | > 100 µM (inactive) | > 100 µM (inactive) |  | > 100 µM (inactive) | > 100 µM (inactive) | > 100 µM (inactive) |
